In US20250011311A1, “AMIDO HETEROAROMATIC COMPOUNDS” (AstraZeneca AB, priority 2022, published 2025):

Assays:
[1] = biological target: recombinant 17bHSD4 (M1-N311) (Homo sapiens (Human), UniProt P51659); assay: In Vitro 17bHSD4 Enzyme Assay; format: biochemical; settings: 40 nM 17bHSD4, 0.125 mM NAD, 15 μM Estradiol, 1.5 h; NADH fluorescence; read-out: 17HSD17b4 Enzyme assay IC50
[2] = biological target: CYP2C9 (Homo sapiens (Human), UniProt P11712); assay: Assay B: Cytochrome P450 Inhibition 2C9
[3] = test system: human hepatocytes; assay: Assay A: Metabolic Stability in Human Hepatocytes; format: in vitro ADME; settings: cryopreserved human hepatocytes, 10^6 viable cells/mL, 1 μM compound, 37° C.
Method: Assay A: Metabolic Stability in Human Hepatocytes
Hepatocyte metabolic stability was determined in accordance with the method described by Jacobson et al., An optimized automated assay for determination of metabolic stability using hepatocytes: assay validation, variance component analysis, and in vivo relevance. Assay Drug Dev Technol 2007, 5 (3), 403-415. DOI: 10.1089/adt.2007.059, which is incorporated herein by reference. Cryopreserved hepatocytes at a concentration of 10^6 viable cells/mL were used. After thawing, hepatocytes were incubated for 10 min to warm to 37° C. and test compounds, dissolved in acetonitrile, were added to give a final concentration of 1 μM. At 0.5, 5, 15, 30, 45, 60, 80, 100 and 120 min, the incubation system was mixed and 20 μL aliquots were transferred at each time point to wells in a separate plate filled with 80 μL MeCN to stop the reaction. The quenching plate was then vortexed followed by centrifugation, and supernatants were analyzed by LC-MS/MS. Peak areas were determined from extracted ion chromatograms, and the in vitro intrinsic clearance (in vitro CLint, in μL/min/10^6 cells) of parent compound was calculated from the slope in the regression analysis of the natural logarithm of parent concentration vs time curve.

[4] = biological target: recombinant 17bHSD13 (N2-K300) (Homo sapiens (Human), UniProt Q7Z5P4); assay: In Vitro 17bHSD13 Enzyme Assay; format: biochemical; settings: 80 nM 17bHSD13, 0.5 mM NAD, 20 μM Estradiol, 2.5 h; estradiol to estrone by LC-MS/MS
Procedure, shortened: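 Human 17bHSD13 (N2-K300, 80 nM) with 0.5 mM NAD, 20 μM estradiol and varied compound in 50 mM Tris-Cl pH 7.4, 5 mM EDTA, 0.01% DDM. Estrone/(estrone+estradiol) ratio read by LC-MS/MS (APCI, positive MRM). Inhibition normalised to DMSO and a known-inhibitor control; IC50 from curve fit.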

[5] = biological target: over expressed HSD17β13 in HEK293S cells (Homo sapiens (Human), UniProt Q7Z5P4); assay: In Vitro 17bHSD13 Cell Assay; format: cell-based; settings: HEK293S cells over expressing HSD17β13; estradiol to estrone conversion, 18 h, LC-MS/MS; read-out: 17bHSD1713 Cell assay IC50
Procedure, shortened: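 HEK293S cells overexpressing HSD17β13 convert estradiol to estrone; product read by LC-MS/MS (APCI, positive MRM) as AUC ratio estrone/(estrone+estradiol). Effect normalised between DMSO and maximal inhibition by a known inhibitor control; IC50 from curve fit.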

[6] = biological target: over expressed HSD17β9 in HEK293S cells (Homo sapiens (Human), UniProt Q92781); assay: In Vitro 17bHSD9 Cell Assay; format: cell-based; settings: HEK293S cells over expressing HSD17β9; retinol to retinal conversion, 18 h, LC-MS/MS; read-out: 17bHSD9 Cell assay IC50
Procedure, shortened: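 HEK293S cells overexpressing HSD17β9 were plated at 10K cells/well in DMEM + 10% FBS and cultured 18 h. Retinol-to-retinal conversion in media was quantified by LC-MS/MS (MRM) as retinal/(retinal + retinol). IC50 was fitted after normalisation to DMSO and full inhibition by a reference inhibitor.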

over expressed HSD17β9 in HEK293S cells, sequence (Q92781 whole entry): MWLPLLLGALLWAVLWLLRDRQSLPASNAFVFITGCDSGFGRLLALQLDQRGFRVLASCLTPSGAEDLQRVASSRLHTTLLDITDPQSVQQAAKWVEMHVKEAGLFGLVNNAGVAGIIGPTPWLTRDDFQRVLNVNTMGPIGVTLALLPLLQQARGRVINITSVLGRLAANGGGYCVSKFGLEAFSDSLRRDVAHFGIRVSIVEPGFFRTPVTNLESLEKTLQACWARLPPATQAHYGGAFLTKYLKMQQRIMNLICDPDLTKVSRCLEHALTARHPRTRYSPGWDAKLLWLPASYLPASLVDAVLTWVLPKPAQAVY
recombinant 17bHSD4 (M1-N311), sequence (P51659 1-311): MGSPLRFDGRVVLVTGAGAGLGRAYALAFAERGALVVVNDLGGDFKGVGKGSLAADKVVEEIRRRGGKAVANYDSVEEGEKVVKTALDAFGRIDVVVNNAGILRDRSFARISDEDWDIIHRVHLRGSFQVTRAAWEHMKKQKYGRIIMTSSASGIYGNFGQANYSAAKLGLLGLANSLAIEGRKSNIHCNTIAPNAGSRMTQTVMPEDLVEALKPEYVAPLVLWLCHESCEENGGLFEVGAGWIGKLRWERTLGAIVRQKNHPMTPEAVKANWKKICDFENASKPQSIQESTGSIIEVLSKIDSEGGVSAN
recombinant 17bHSD13 (N2-K300), sequence (Q7Z5P4 2-300): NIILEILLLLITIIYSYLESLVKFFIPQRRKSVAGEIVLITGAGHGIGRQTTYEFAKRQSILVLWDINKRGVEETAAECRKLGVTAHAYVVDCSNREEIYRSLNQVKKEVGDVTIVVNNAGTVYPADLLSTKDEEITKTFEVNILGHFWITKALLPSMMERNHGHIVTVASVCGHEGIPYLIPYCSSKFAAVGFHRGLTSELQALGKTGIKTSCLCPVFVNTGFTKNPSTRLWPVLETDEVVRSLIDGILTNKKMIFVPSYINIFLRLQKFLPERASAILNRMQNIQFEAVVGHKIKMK
over expressed HSD17β13 in HEK293S cells, sequence (Q7Z5P4 20-300): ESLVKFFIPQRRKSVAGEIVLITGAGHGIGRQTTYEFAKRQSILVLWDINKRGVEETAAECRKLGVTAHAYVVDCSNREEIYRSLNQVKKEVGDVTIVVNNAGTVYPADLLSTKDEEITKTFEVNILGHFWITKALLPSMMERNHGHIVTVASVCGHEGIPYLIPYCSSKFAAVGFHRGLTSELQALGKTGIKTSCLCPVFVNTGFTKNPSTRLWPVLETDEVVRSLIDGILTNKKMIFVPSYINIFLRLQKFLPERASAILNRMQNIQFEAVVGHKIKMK
CYP2C9, sequence (P11712 whole entry): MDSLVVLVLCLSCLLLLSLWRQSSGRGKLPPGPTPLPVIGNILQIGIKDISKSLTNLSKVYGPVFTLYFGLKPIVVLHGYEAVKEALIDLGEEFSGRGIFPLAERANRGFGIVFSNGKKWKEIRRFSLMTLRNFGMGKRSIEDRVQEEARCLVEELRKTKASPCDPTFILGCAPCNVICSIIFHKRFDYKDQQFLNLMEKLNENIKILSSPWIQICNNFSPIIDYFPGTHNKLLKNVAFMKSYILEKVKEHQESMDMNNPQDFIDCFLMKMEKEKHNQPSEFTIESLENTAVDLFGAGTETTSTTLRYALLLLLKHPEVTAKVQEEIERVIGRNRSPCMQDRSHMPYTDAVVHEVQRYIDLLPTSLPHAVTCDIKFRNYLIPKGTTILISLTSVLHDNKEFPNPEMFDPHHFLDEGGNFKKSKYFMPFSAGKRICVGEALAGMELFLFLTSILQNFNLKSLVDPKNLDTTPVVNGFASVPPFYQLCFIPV

SMILES: O=C(c1noc(-c2cc(F)c(F)c(O)c2F)n1)N1CC(c2ccccc2)C1 [Example 60, (3-Phenylazetidin-1-yl)(5-(2,4,5-trifluoro-3-hydroxyphenyl)-1,2,4-oxadiazol-3-yl)methanone]
- IC50 [1]: 11000 nM
- IC50 [2]: 3900 nM
- Assay A: Human Heps Met Clint GMean CLint (μl/min/1E6) [3]: 13.8 μl/min/1E6
- IC50 [4]: 137 nM
- IC50 [5]: 2980 nM

SMILES: O=C(c1nnc(-c2ccc(F)c(O)c2)o1)N1CCOC2(CCC2)C1 [Example 90, (5-(4-Fluoro-3-hydroxyphenyl)-1,3,4-oxadiazol-2-yl)(5-oxa-8-azaspiro[3.5]nonan-8-yl)methanone]
- IC50 [1]: > 50000 nM
- IC50 [2]: > 30000 nM
- Assay A: Human Heps Met Clint GMean CLint (μl/min/1E6) [3]: >300 μl/min/1E6
- IC50 [4]: 626 nM
- IC50 [5]: 1690 nM

SMILES: N#Cc1ccc2c(c1)CN(C(=O)c1noc(-c3cc(F)c(F)c(O)c3F)n1)C2 [Example 106, 2-(5-(2,4,5-Trifluoro-3-hydroxyphenyl)-1,2,4-oxadiazole-3-carbonyl)isoindoline-5-carbonitrile]
- IC50 [6]: > 50000 nM
- IC50 [2]: 5900 nM
- Assay A: Human Heps Met Clint GMean CLint (μl/min/1E6) [3]: 16.1 μl/min/1E6
- IC50 [4]: 516 nM
- IC50 [5]: 1220 nM

SMILES: N#Cc1ccc(C2CN(C(=O)c3noc(-c4cc(F)c(F)c(O)c4F)n3)C2)cc1 [Example 59, 4-(1-(5-(2,4,5-Trifluoro-3-hydroxyphenyl)-1,2,4-oxadiazole-3-carbonyl)azetidin-3-yl)benzonitrile]
- IC50 [6]: > 50000 nM
- IC50 [2]: 13100 nM
- Assay A: Human Heps Met Clint GMean CLint (μl/min/1E6) [3]: 10.2 μl/min/1E6
- IC50 [4]: 608 nM
- IC50 [5]: 3470 nM

SMILES: N#Cc1ccc(N2CCN(C(=O)c3noc(-c4cc(F)c(F)c(O)c4F)n3)CC2)cc1 [Example 83, 4-(4-(5-(2,4,5-Trifluoro-3-hydroxyphenyl)-1,2,4-oxadiazole-3-carbonyl)piperazin-1-yl)benzonitrile]
- IC50 [1]: 14400 nM
- IC50 [2]: 6200 nM
- Assay A: Human Heps Met Clint GMean CLint (μl/min/1E6) [3]: 11.8 μl/min/1E6
- IC50 [4]: 102 nM
- IC50 [5]: 2880 nM

SMILES: N#Cc1ccc(C2CCN(C(=O)c3noc(-c4cc(F)c(F)c(O)c4F)n3)CC2)cc1 [Example 56, 4-(1-(5-(2,4,5-Trifluoro-3-hydroxyphenyl)-1,2,4-oxadiazole-3-carbonyl)piperidin-4-yl)benzonitrile]
- IC50 [1]: 23500 nM
- IC50 [2]: 5100 nM
- Assay A: Human Heps Met Clint GMean CLint (μl/min/1E6) [3]: 5.9 μl/min/1E6
- IC50 [4]: 142 nM
- IC50 [5]: 1360 nM

SMILES: N#Cc1c(C(=O)N2CC[C@@H](c3ccc(Cl)cc3)C2)noc1-c1cc(F)c(F)c(O)c1F [Example 21, (S)-3-(3-(4-Chlorophenyl)pyrrolidine-1-carbonyl)-5-(2,4,5-trifluoro-3-hydroxyphenyl)isoxazole-4-carbonitrile]
- IC50 [6]: 22600 nM
- IC50 [2]: 200 nM
- Assay A: Human Heps Met Clint GMean CLint (μl/min/1E6) [3]: 13.3 μl/min/1E6
- IC50 [4]: 32 nM
- IC50 [5]: 660 nM

SMILES: O=C(c1noc(-c2cc(F)c(F)c(O)c2F)n1)N1CCC(OCc2ccccc2)C1 (stereo not drawn) [Example 97, (3-(Benzyloxy)pyrrolidin-1-yl)(5-(2,4,5-trifluoro-3-hydroxyphenyl)-1,2,4-oxadiazol-3-yl)methanone]
- IC50 [1]: 26200 nM
- IC50 [2]: 1800 nM
- Assay A: Human Heps Met Clint GMean CLint (μl/min/1E6) [3]: 46.6 μl/min/1E6
- IC50 [4]: 122 nM
- IC50 [5]: 890 nM

SMILES: O=C(c1noc(-c2cc(F)c(F)c(O)c2F)n1)N1CCC(Oc2cccnc2)CC1 [Example 70, (4-(Pyridin-3-yloxy)piperidin-1-yl)(5-(2,4,5-trifluoro-3-hydroxyphenyl)-1,2,4-oxadiazol-3-yl)methanone]
- IC50 [2]: 18400 nM
- Assay A: Human Heps Met Clint GMean CLint (μl/min/1E6) [3]: 12.4 μl/min/1E6
- IC50 [4]: 242 nM
- IC50 [5]: 2220 nM

SMILES: N#Cc1c(C(=O)N2CCC(O)(C(F)(F)F)CC2)noc1-c1cc(F)c(F)c(O)c1F [Example 26, 3-(4-Hydroxy-4-(trifluoromethyl)piperidine-1-carbonyl)-5-(2,4,5-trifluoro-3-hydroxyphenyl)isoxazole-4-carbonitrile]
- IC50 [2]: 4400 nM
- Assay A: Human Heps Met Clint GMean CLint (μl/min/1E6) [3]: 9.2 μl/min/1E6
- IC50 [4]: 278 nM
- IC50 [5]: 2970 nM

SMILES: N#Cc1c(C(=O)N2CCN(c3ccc4nnc(C(F)(F)F)n4n3)CC2)noc1-c1cc(F)c(F)c(O)c1F [Example 17, 5-(2,4,5-Trifluoro-3-hydroxyphenyl)-3-(4-(3-(trifluoromethyl)-[1,2,4]triazolo[4,3-b]pyridazin-6-yl)piperazine-1-carbonyl)isoxazole-4-carbonitrile]
- IC50 [2]: 200 nM
- Assay A: Human Heps Met Clint GMean CLint (μl/min/1E6) [3]: 6.5 μl/min/1E6
- IC50 [4]: 525 nM
- IC50 [5]: 3100 nM

SMILES: Cn1nc(C2CC2)c2c1CCN(C(=O)c1noc(-c3cc(F)c(F)c(O)c3F)c1C#N)C2 [Example 20, 3-(3-Cyclopropyl-1-methyl-4,5,6,7-tetrahydro-1H-pyrazolo[4,3-c]pyridine-5-carbonyl)-5-(2,4,5-trifluoro-3-hydroxyphenyl)isoxazole-4-carbonitrile]
- IC50 [6]: 29400 nM
- IC50 [2]: 400 nM
- Assay A: Human Heps Met Clint GMean CLint (μl/min/1E6) [3]: 16.8 μl/min/1E6
- IC50 [4]: 63 nM
- IC50 [5]: 2400 nM

SMILES: O=C(c1noc(-c2cc(F)c(F)c(O)c2F)n1)N1CCN(c2ccccn2)CC1 [Example 58, (4-(Pyridin-2-yl)piperazin-1-yl)(5-(2,4,5-trifluoro-3-hydroxyphenyl)-1,2,4-oxadiazol-3-yl)methanone]
- IC50 [1]: 20600 nM
- IC50 [2]: 7300 nM
- Assay A: Human Heps Met Clint GMean CLint (μl/min/1E6) [3]: 24.6 μl/min/1E6
- IC50 [4]: 103 nM
- IC50 [5]: 1080 nM

SMILES: CC(C)(C)N(Cc1ccccn1)C(=O)c1noc(-c2cc(F)c(F)c(O)c2F)c1C#N [Example 19, N-(tert-Butyl)-4-cyano-N-(pyridin-2-ylmethyl)-5-(2,4,5-trifluoro-3-hydroxyphenyl)isoxazole-3-carboxamide]
- IC50 [1]: 19600 nM
- IC50 [2]: 1000 nM
- Assay A: Human Heps Met Clint GMean CLint (μl/min/1E6) [3]: 4.3 μl/min/1E6
- IC50 [4]: 108 nM
- IC50 [5]: 2010 nM

SMILES: O=C(c1noc(-c2cc(F)c(F)c(O)c2F)n1)N1CCC(Oc2ccc(F)cc2)C1 (stereo not drawn) [Example 79, (3-(4-Fluorophenoxy)pyrrolidin-1-yl)(5-(2,4,5-trifluoro-3-hydroxyphenyl)-1,2,4-oxadiazol-3-yl)methanone]
- IC50 [2]: 2000 nM
- Assay A: Human Heps Met Clint GMean CLint (μl/min/1E6) [3]: 10.1 μl/min/1E6
- IC50 [4]: 106 nM
- IC50 [5]: 1390 nM

SMILES: O=C(c1noc(-c2cc(F)c(F)c(O)c2F)n1)N1CC2CC2(c2ccccc2)C1 (stereo not drawn) [Example 77, (1-Phenyl-3-azabicyclo[3.1.0]hexan-3-yl)(5-(2,4,5-trifluoro-3-hydroxyphenyl)-1,2,4-oxadiazol-3-yl)methanone]
- IC50 [2]: 300 nM
- Assay A: Human Heps Met Clint GMean CLint (μl/min/1E6) [3]: 13.4 μl/min/1E6
- IC50 [4]: 75 nM
- IC50 [5]: 170 nM

SMILES: N#Cc1ccccc1N1CCN(C(=O)c2noc(-c3cc(F)c(F)c(O)c3F)n2)CC1 [Example 82, 2-(4-(5-(2,4,5-Trifluoro-3-hydroxyphenyl)-1,2,4-oxadiazole-3-carbonyl)piperazin-1-yl)benzonitrile]
- IC50 [6]: > 50000 nM
- IC50 [2]: 4300 nM
- Assay A: Human Heps Met Clint GMean CLint (μl/min/1E6) [3]: 15.4 μl/min/1E6
- IC50 [4]: 62 nM
- IC50 [5]: 450 nM

SMILES: C[C@@H]1CN(C(=O)c2noc(-c3c(F)c(O)c(F)c(F)c3Br)n2)C[C@H](C)O1 [Example 124, (5-(2-Bromo-3,4,6-trifluoro-5-hydroxyphenyl)-1,2,4-oxadiazol-3-yl)((2R,6S)-2,6-dimethylmorpholino)methanone]
- IC50 [6]: 24100 nM
- IC50 [2]: 27000 nM
- Assay A: Human Heps Met Clint GMean CLint (μl/min/1E6) [3]: 11.1 μl/min/1E6
- IC50 [4]: 42 nM
